According to PMC10235067, “Increased renal elimination of endogenous and synthetic pyrimidine nucleosides in concentrative nucleoside transporter 1 deficient mice” (Nature Communications, 2023):
Where “and” joins values, the source holds several entries; their conditions need not be identical. Equal values may be shown once.

Assay: Gemcitabine plasma pharmacokinetics in Slc28a1+/+ and Slc28a1-/- mice
Details: for C0: C0, dFdU in plasma; for MRT last: MRTlast
[1] = dFdU in plasma, KO mice, iv gemcitabine 50mg/kg, per mouse
[2] = dFdU in plasma, WT mice, iv gemcitabine 50mg/kg, per mouse
[3] = female, Slc28a1-/- (CNT1 knockout; background strain not stated), mouse, plasma, intravenous, 50 mg/kg, Cp (dFdU), KO mice, single iv gemcitabine 50mg/kg
[4] = female, mouse, plasma, intravenous, 50 mg/kg, Cp (dFdU), WT mice, single iv gemcitabine 50mg/kg

With `O=c1ccn([C@@H]2O[C@H](CO)[C@@H](O)C2(F)F)c(=O)[nH]1` [dFdU, 2′,2′-difluorodeoxyuridine] the Tmax [1] was 5 min and 10 min and 15 min, the Vss_obs [1] was 69.4601 L/kg and 61.663 L/kg and 82.9724 L/kg and the Vss_pred [1] was 69.3609 L/kg and 61.8825 L/kg and 83.3534 L/kg. For the same compound, the Vz_obs [1] was 55.6606 L/kg and 50.262 L/kg and 61.5323 L/kg, the Vz_pred [1] was 55.7054 L/kg and 50.0305 L/kg and 61.2807 L/kg and the AUCINF_D_obs [2] was 809.741 kg·ng·min/mL/mg and 249.152 kg·ng·min/mL/mg and 172.396 kg·ng·min/mL/mg and 377.161 kg·ng·min/mL/mg. For the same compound, the AUCINF_D_pred [2] was 816.693 kg·ng·min/mL/mg and 238.149 kg·ng·min/mL/mg and 171.456 kg·ng·min/mL/mg and 377.935 kg·ng·min/mL/mg, the AUCINF_obs [2] was 40487.1 ng·min/mL and 12457.6 ng·min/mL and 8619.8 ng·min/mL and 18858.1 ng·min/mL and the AUCINF_pred [2] was 40834.7 ng·min/mL and 11907.4 ng·min/mL and 8572.82 ng·min/mL and 18896.7 ng·min/mL. The AUC_%Back_Ext_obs [2] was 5.421% and 15.2704% and 19.786% and 11.9089%, the AUC_%Back_Ext_pred [2] was 5.375% and 15.976% and 19.8944% and 11.8845% and the AUC_%Extrap_obs [2] was 84.3044% and 33.9106% and 11.4334% and 37.4722%. For the same compound, the AUC_%Extrap_pred [2] was 84.438% and 30.857% and 10.948% and 37.6002%, the AUCall [2] was 4075.38 ng·min/mL and 9255.63 ng·min/mL and 10796.8 ng·min/mL and 8847.25 ng·min/mL and 15444.5 ng·min/mL and 12682.2 ng·min/mL and the AUClast [2] was 2654.78 ng·min/mL and 6354.7 ng·min/mL and 8233.16 ng·min/mL and 7634.27 ng·min/mL and 11791.5 ng·min/mL and 11904.6 ng·min/mL. For the same compound, the AUClast_D [2] was 53.0957 kg·ng·min/mL/mg and 127.094 kg·ng·min/mL/mg and 164.663 kg·ng·min/mL/mg and 152.685 kg·ng·min/mL/mg and 235.831 kg·ng·min/mL/mg and 238.093 kg·ng·min/mL/mg, the AUMCINF_obs [2] was 3570423 min*min*ng/mL and 327900 min*min*ng/mL and 123838 min*min*ng/mL and 570014 min*min*ng/mL and the AUMCINF_pred [2] was 3606313 min*min*ng/mL and 297795 min*min*ng/mL and 121856 min*min*ng/mL and 572297 min*min*ng/mL. The AUMC_%Extrap_obs [2] was 98.6995% and 70.4945% and 33.5736% and 73.1636%, the AUMC_%Extrap_pred [2] was 98.7124% and 67.5118% and 32.4931% and 73.2706% and the AUMClast [2] was 21508.2 min*min*ng/mL and 46433.5 min*min*ng/mL and 96748.4 min*min*ng/mL and 82261.4 min*min*ng/mL and 152972 min*min*ng/mL and 128827 min*min*ng/mL. For the same compound, the Cl_pred [2] was 73.467 L/h/kg and 251.944 L/h/kg and 349.943 L/h/kg and 158.758 L/h/kg, the Clast [2] was 189.413 ng/mL and 386.792 ng/mL and 170.91 ng/mL and 80.8657 ng/mL and 243.534 ng/mL and 51.8385 ng/mL and the Clast_pred [2] was 390.731 ng/mL and 148.651 ng/mL and 77.0106 ng/mL and 244.867 ng/mL. For the same compound, the Cmax [2] was 214.033 ng/mL and 433.203 ng/mL and 507.425 ng/mL and 460.142 ng/mL and 479.909 ng/mL and 627.306 ng/mL, the Cmax_D [2] was 4.281 kg·ng/mL/mg and 8.664 kg·ng/mL/mg and 10.1485 kg·ng/mL/mg and 9.203 kg·ng/mL/mg and 9.598 kg·ng/mL/mg and 12.5461 kg·ng/mL/mg and the HL_Lambda_z [2] was 61.1667 min and 17.1328 min and 8.4476 min and 20.1128 min. For the same compound, the Lambda_z [2] was 0.01133 min⁻¹ and 0.04046 min⁻¹ and 0.08205 min⁻¹ and 0.03446 min⁻¹, the MRTINF_obs [2] was 88.1868 min and 26.3212 min and 14.3667 min and 30.2266 min and the MRTINF_pred [2] was 88.315 min and 25.0092 min and 14.2143 min and 30.2855 min. For the same compound, the MRTlast [2] was 7.307 min and 11.7511 min and 10.7753 min and 12.973 min and 10.8216 min, the Tlast [2] was 15 min and 30 min and the Tmax [2] was 10 min and 5 min and 15 min. The Vss_obs [2] was 108.907 L/kg and 105.643 L/kg and 83.3357 L/kg and 80.1423 L/kg, the Vss_pred [2] was 108.137 L/kg and 105.015 L/kg and 82.9031 L/kg and 80.1342 L/kg and the Vz_obs [2] was 108.979 L/kg and 99.2063 L/kg and 70.6936 L/kg and 76.9343 L/kg. The Vz_pred [2] was 108.051 L/kg and 103.79 L/kg and 71.0811 L/kg and 76.7768 L/kg, the concentration at 120 min [3] was 0 ng/mL and the concentration at 240 min [3] was 0 ng/mL. The concentration at 5 min (female, mouse, plasma, intravenous, 50 mg/kg, Cp (dFdU), KO mice, single iv gemcitabine 50mg/kg, 5 min) was 400 ng/mL, the concentration at 60 min (female, mouse, plasma, intravenous, 50 mg/kg, Cp (dFdU), KO mice, single iv gemcitabine 50mg/kg) was 0 ng/mL and the concentration at 60 min [4] was 0 ng/mL. It also gave a concentration at 120 min [4] of 0 ng/mL, a concentration at 240 min [4] of 0 ng/mL and an AUC(0-inf) (female, mouse, plasma, iv, 50 mg/kg, AUCINF_obs, dFdU in plasma, KO mice, iv gemcitabine 50mg/kg, per mouse) of 121 ng·h/mL. The AUC(0-inf) (female, mouse, plasma, iv, 50 mg/kg, AUCINF_pred, dFdU in plasma, KO mice, iv gemcitabine 50mg/kg, per mouse) was 121 ng·h/mL, the C0 (female, mouse, plasma, iv, 50 mg/kg, KO mice, iv gemcitabine 50mg/kg, per mouse) was 408 ng/mL and the C0 (female, mouse, plasma, iv, 50 mg/kg, WT mice, iv gemcitabine 50mg/kg, per mouse) was 445 ng/mL. For the same compound, the Cmax (female, mouse, plasma, iv, 50 mg/kg, Cmax, Slc28a1+/+ mice, plasma, single i.v. dFdC 50 mg/kg) was 453 ± 7.35 ng/mL, the Cmax (female, mouse, plasma, iv, 50 mg/kg, Cmax, Slc28a1-/- mice, single i.v. dFdC 50 mg/kg) was 386 ± 8.42 ng/mL and the k el (female, mouse, plasma, iv, 50 mg/kg, Lambda_z, dFdU in plasma, KO mice, iv gemcitabine 50mg/kg, per mouse) was 0.00206 s⁻¹. For the same compound, the MRT inf (female, mouse, plasma, iv, 50 mg/kg, MRTINF_obs, dFdU in plasma, KO mice, iv gemcitabine 50mg/kg, per mouse) was 10.1 min, the MRT inf (female, mouse, plasma, iv, 50 mg/kg, MRTINF_pred, dFdU in plasma, KO mice, iv gemcitabine 50mg/kg, per mouse) was 10.1 min and the MRT last (female, mouse, plasma, iv, 50 mg/kg, dFdU in plasma, KO mice, iv gemcitabine 50mg/kg, per mouse) was 9.07 min. It also gave an MRT last (female, mouse, plasma, iv, 50 mg/kg, dFdU in plasma, WT mice, iv gemcitabine 50mg/kg, per mouse) of 8.1 min, a Tmax (female, mouse, plasma, iv, 50 mg/kg, Tmax, Slc28a1+/+ mice, plasma, single i.v. dFdC 50 mg/kg) of 240 min and a Tmax (female, mouse, plasma, iv, 50 mg/kg, Tmax, Slc28a1-/- mice, single i.v. dFdC 50 mg/kg) of 240 min. The “Cp (dFdU)” value (plasma, KO mice, single iv gemcitabine 50mg/kg, 5 min) was 397.109 ng/mL and 353.736 ng/mL and 215.606 ng/mL and 287.027 ng/mL and 238.121 ng/mL.
